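Growth conditions: 96-well plates. Treatment: test compound, 48 hours, 5 concentrations. Analysis: linear interpolation between bracketing concentrations; unreached endpoints set to highest concentration. The concentration for 50% growth inhibition is given as GI50. TGI denotes the concentration required for complete inhibition of growth.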
How the values were obtained:
Assay in all cases: NCI anticancer screen, dose series, 48 h
SK-MEL-2 melanoma = test system: SK-MEL-2 melanoma
LOX IMVI melanoma = test system: LOX IMVI melanoma
RPMI-8226 leukemia = test system: RPMI-8226 leukemia
HS 578T breast = test system: HS 578T breast
T-47D breast = test system: T-47D breast
HT29 colon = test system: HT29 colon
SK-OV-3 ovarian = test system: SK-OV-3 ovarian
NCI-H460 lung = test system: NCI-H460 lung

| SMILES | GI50 (SK-MEL-2 melanoma) | TGI (SK-MEL-2 melanoma) | GI50 (LOX IMVI melanoma) | TGI (LOX IMVI melanoma) | GI50 (RPMI-8226 leukemia) | TGI (RPMI-8226 leukemia) | GI50 (HS 578T breast) | TGI (HS 578T breast) | GI50 (T-47D breast) | TGI (T-47D breast) | GI50 (HT29 colon) | TGI (HT29 colon) | GI50 (SK-OV-3 ovarian) | TGI (SK-OV-3 ovarian) | GI50 (NCI-H460 lung) | TGI (NCI-H460 lung) |
| --- | --- | --- | --- | --- | --- | --- | --- | --- | --- | --- | --- | --- | --- | --- | --- | --- |
| CC[C@H](C)[C@H](NC(=O)C12C3C4C1C1C2C3C41NC(C)=O)C(=O)N(C)[C@H](C[C@@H](OC(C)=O)c1nc(C(=O)N[C@@H](Cc2ccccc2)C[C@H](C)C(=O)OC)cs1)C(C)C (some centres undefined) | 0.162 µM | > 14.3 µM | 0.231 µM | > 14.3 µM | 0.0735 µM | > 6.78 µM | 0.468 µM | > 14.3 µM | > 14.3 µM | > 14.3 µM | 0.36 µM | 2.47 µM | 0.703 µM | > 14.3 µM | 0.402 µM | > 14.3 µM |
| COc1ccc(/C=C2\N=C3SC=C(N)N3C2=O)cc1 | 1.02 µM | 2.75 µM | 0.964 µM | 2.43 µM | 0.492 µM | 2.99 µM | 1.19 µM | 5.56 µM | 0.334 µM | 14.9 µM | 1.21 µM | 3.37 µM | 2.16 µM | 11.7 µM | 0.582 µM | 14 µM |
| COc1ccc2c3c(c(OCCCN(C)C)nc2c1)-c1ccc(Cl)cc1C3=O | 19.6 µM | 40.3 µM | 4.58 µM | 19.4 µM | 15.4 µM | 56.1 µM | 13.3 µM | 34.3 µM | 12.5 µM | 48.3 µM | 2.01 µM | 17.6 µM | 12.2 µM | 26.7 µM | 2.26 µM | 10.2 µM |
| COc1ccc(/C=C2\COc3ccc(-c4ccccc4)cc3C2=O)cc1O | 2.17 µM | 6.1 µM | 1.85 µM | 3.87 µM | 3.61 µM | > 100 µM | 2.72 µM | 7.56 µM | 3.28 µM | 30.2 µM | 1.46 µM | 3.85 µM | 4.16 µM | 22.3 µM | 2.07 µM | 5.8 µM |
| CC/C=C\CCC/C=C1/C(=O)C=C[C@@H]1C/C=C\CCCC(=O)O | 4.82 µM | 18.3 µM | 1.46 µM | 3.22 µM | 3.28 µM | 11 µM | 13.7 µM | 59.3 µM | 10.1 µM | 23.3 µM | 2.5 µM | 5.27 µM | 14.4 µM | 31.3 µM | 4.49 µM | 25.3 µM |
| O=[As](O)(O)c1ccc(Cc2ccc([As](=O)(O)O)cc2)cc1 | – | 2.87 µM | – | 1.41 µM | – | 0.984 µM | – | 12.4 µM | – | 1.87 µM | – | 2.38 µM | – | 6.19 µM | – | 2.43 µM |
| COc1cc(C2C(C#N)=C(N)OC3=C2C(=O)c2ccccc2C3=O)cc(OC)c1OC (centres undefined) | 0.998 µM | 19.2 µM | 0.629 µM | 14 µM | 1.36 µM | 33.5 µM | 0.382 µM | 49.3 µM | 3.72 µM | 20.4 µM | 3.45 µM | 41.3 µM | 4.88 µM | > 100 µM | 0.532 µM | 14.5 µM |

Reference: PubChem BioAssay (NCI)
